According to patent US20090047246A1, “NOVEL INHIBITORS OF HEPATITIS C VIRUS REPLICATION” (InterMune, Inc., priority 2007, published 2009):
pIC50: −log10 of the molar value.

What follows are compounds tested against T1, HCV NS3 helicase (Hepatitis C virus genotype 1b, UniProt P26663) (assay: HCV Helicase Prompt FRET Assay (Example A)). Settings: HCV NS3 helicase; tables do not say whether Example A or Example B assay; read-out: IC50 Activity.
T1 construct: full-length NS3 (1-631), purified at Array BioPharma
T1 sequence (P26663 1027-1657): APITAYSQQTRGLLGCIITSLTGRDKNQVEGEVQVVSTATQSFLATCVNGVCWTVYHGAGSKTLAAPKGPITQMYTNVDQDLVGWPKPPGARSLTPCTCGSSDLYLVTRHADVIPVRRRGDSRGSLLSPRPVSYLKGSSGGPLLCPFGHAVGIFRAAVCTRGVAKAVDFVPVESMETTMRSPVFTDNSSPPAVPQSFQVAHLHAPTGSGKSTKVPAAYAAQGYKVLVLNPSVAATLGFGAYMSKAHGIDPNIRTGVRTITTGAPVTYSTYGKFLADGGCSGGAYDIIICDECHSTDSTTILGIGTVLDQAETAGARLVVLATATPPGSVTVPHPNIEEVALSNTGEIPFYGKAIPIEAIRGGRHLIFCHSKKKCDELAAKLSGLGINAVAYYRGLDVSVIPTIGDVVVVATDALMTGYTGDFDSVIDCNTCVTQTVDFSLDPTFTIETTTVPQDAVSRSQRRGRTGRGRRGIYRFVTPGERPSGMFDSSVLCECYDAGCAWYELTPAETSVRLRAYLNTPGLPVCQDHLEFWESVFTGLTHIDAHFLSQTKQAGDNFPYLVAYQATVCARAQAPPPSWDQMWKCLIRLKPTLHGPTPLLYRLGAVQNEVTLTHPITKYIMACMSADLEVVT
Format: biochemical
Protocol: Test compounds were diluted to 2.5 mM by adding 6 uL of a 10 mM solution of the compound to 18 uL of DMSO in a 384-well Costar polypropylene plate. Serial dilutions (2.5×) were performed in the plate using DMSO as the diluent. 1 ul of solution was transferred from each well to a new 384-well Costar polypropylene plate.
A 2× mixture was prepared containing 100 nM helicase substrate, 500 nM helicase capture strand (CS), and 600 μM ATP by diluting stock solutions with assay buffer consisting of 25 mM MOPS, pH 7.0, and 1.5 mM MgCl2, 0.005% (v/v) Triton X-100. Stock helicase substrate was prepared by annealing a FAM-labeled oligonucleotide to a BHQ-1 labeled oligonucleotide, which were both custom synthesized and HPLC-purified at Biosearch Technologies. The FAM-labeled and BHQ-labeled oligonucleotide had the following sequences:
The helicase capture strand was custom synthesized and purified at Integrated DNA Technologies. The helicase capture strand had the following sequence:
The ATP solution was prepared in MilliQ water, pH adjusted to approximately 7 with NaOH. ATP powder was obtained from Sigma (A-7699). The concentration was determined via A260 (ext. coeff=15,400 M^−1cm^−1).
11.5 μL of assay buffer was added to all wells of the plate containing luL of test compound. 5 μL of the Compound/assay buffer mixture was added to a black polystyrene 384-well Proxiplate. A 4× Enzyme solution was prepared by diluting enzyme stock containing full-length NS3 (1-631), purified at Array BioPharma, with assay buffer. 5 μL of the 4× Enzyme solution was added to the Proxiplate and incubated for 5 minutes (for control wells lacking enzyme, assay buffer was used instead). 10 μL of 2× substrate/CS/ATP mixture was then added to all wells of Proxiplate. The final assay conditions included 50 nM Substrate, 250 nM Capture Strand, 300 μM ATP, 5 or 6 nM Enzyme, and 2% (v/v) DMSO. The reaction proceeded for 70 cycles (˜30 min.) on an Envision at room temperature. The plate was read using the Envision (top mirror=FITC; Excitation filter=FITC 485; Emission filter=FITC 535). The fluorescence intensity was recorded for a total of 30 minutes. The initial rates of the reactions was calculated and used to calculate IC50 values. The IC50 curve fitting was performed using either a 4-parameter or 5-parameter logistic equation.

pIC50	SMILES
> 5.00	CC(C)c1ccc(Cn2c(C(=O)NCc3ccc(F)cc3)c(CC(=O)O)c3ccccc32)cc1 [Example 452]
> 5.00	O=C(O)Cc1c(C(=O)c2ccc(-c3ccccc3)cc2)n(Cc2ccccc2)c2ccccc12 [Example 219]
< 4.30	CC(C)c1ccc(Cn2cc(C(N)C(=O)O)c3ccccc32)cc1 (stereo not shown) [Example 418]
> 5.00	O=C(O)Cc1c(Cc2ccc(-c3cccc(Cl)c3Cl)cc2)[nH]c2ccccc12 [Example 290]
< 4.30	O=C(O)c1cccc2[nH]c3ccccc3c12 [Example 467]
> 5.00	O=C(O)Cc1c(C(=O)c2ccc(-c3cccc(Cl)c3Cl)cc2)[nH]c2ccccc12 [Example 274]
> 5.00	c1ccc(-c2ccccc2Cn2cc(Cc3nnn[nH]3)c3ccccc32)cc1 [Example 203]
> 5.00	O=C(O)Cc1c(Cc2cccc(-c3ccc(Cl)cc3Cl)c2)oc2ccccc12 [Example 308]
> 5.00	CN(Cc1cccc(F)c1)c1ccc(-n2cc(CC(=O)O)c3ccccc32)cc1 [Example 178]
> 5.00	CN(Cc1ccccc1F)c1ccc(-n2cc(CC(=O)O)c3ccccc32)cc1 [Example 182]
> 5.00	CC(C)c1ccc(Cn2c(C(=O)NCc3ccc(Oc4ccccc4)cc3)c(CC(=O)O)c3cc(Br)ccc32)cc1 [Example 446]
4.30 to 5.00	COC(=O)C(c1ccc([N+](=O)[O-])cc1C)C1CN(c2ccc([N+](=O)[O-])cc2C)c2ccc(Br)cc21 (stereo not shown) [Example 400]
> 5.00	CC(C)(C)OC(=O)NCc1cccc(-c2ccc(C(=O)c3[nH]c4ccccc4c3CC(=O)O)cc2)c1 [Example 268]
> 5.00	CC(C)c1ccc(Cn2c(C(=O)NCc3ccc(C(F)(F)F)cc3)c(CC(=O)O)c3ccccc32)cc1 [Example 455]
> 5.00	CCC(C)N(Cc1ccccc1)c1ccc(-n2cc(CC(=O)O)c3ccccc32)cc1 (stereo not shown) [Example 171]
> 5.00	O=C(O)Cc1c(Cc2csc3ccc(Cl)cc23)n(-c2ccc([N+](=O)[O-])cc2)c2cc(OCc3ccccc3)ccc12 [Example 372]
> 5.00	O=C(O)Cc1c(Cc2ccc(-c3ccccc3C(F)(F)F)cc2)[nH]c2ccccc12 [Example 285]
< 4.30	Cc1cc([N+](=O)[O-])ccc1-n1cc(CC(=O)O)c2cc(Br)cnc21 [Example 324]
> 5.00	O=C(O)Cc1cn(Cc2csc3ccc(Br)cc23)c2ccc(Br)cc12 [Example 135]
> 5.00	Cc1cc(-c2ccc(C(=O)c3[nH]c4ccccc4c3CC(=O)O)cc2)ccc1Cl [Example 261]
> 5.00	O=C(O)Cc1c(Cc2cccc(-c3cccc(CO)c3)c2)[nH]c2ccccc12 [Example 300]
> 5.00	O=C(O)Cc1cn(Cc2cccc(Oc3ccccc3F)c2)c2ccccc12 [Example 472]
< 4.30	Cc1cc([N+](=O)[O-])ccc1-n1cc(I)c2cc(Br)cnc21 [Example 320]
> 5.00	O=C(O)Cc1c(C(=O)c2cccc(-c3ccc(Cl)cc3Cl)c2)oc2ccccc12 [Example 242]

pIC50	SMILES
4.30 to 5.00	O=C(O)Cc1c(C(=O)c2cccc(-c3cccc(OC(F)(F)F)c3)c2)[nH]c2ccccc12 [Example 237]
4.30 to 5.00	CC(C)c1ccc(Cn2cc(CC(=O)O)c3ccccc32)cc1 [Example 424]
4.30 to 5.00	CCN(CC)C(=O)c1c(CC(=O)O)c2cc(Br)ccc2n1Cc1ccc(C(C)C)cc1 [Example 432]
> 5.00	CC(C)c1cccc(-c2cccc(C(=O)c3[nH]c4ccccc4c3CC(=O)O)c2)c1 [Example 227]
> 5.00	Clc1ccc2scc(Cn3c(-c4ccccc4)c(Cc4nnn[nH]4)c4ccccc43)c2c1 [Example 204]
> 5.00	O=C(O)Cc1c(Cc2cccc(-c3cccc(Cl)c3Cl)c2)oc2ccccc12 [Example 307]
> 5.00	CN(c1ccc(F)cc1)c1cccc(Cn2cc(CC(=O)O)c3ccccc32)c1 [Example 522]
4.30 to 5.00	O=C(O)Cc1c(C(=O)c2ccc(-c3ccc(Cl)cc3)cc2)[nH]c2ccccc12 [Example 252]
4.30 to 5.00	Cn1c(C(=O)Cc2ccc(-c3ccccc3)cc2)c(CC(=O)O)c2ccccc21 [Example 250]
4.30 to 5.00	O=C(O)Cc1cn(Cc2cccc(-c3c[nH]nn3)c2)c2ccc(OCc3ccccc3)cc12 [Example 127]
4.30 to 5.00	CC(C)c1ccc(Cn2c(C(=O)NC3CCCCC3)c(CC(=O)O)c3cc(Br)ccc32)cc1 [Example 435]
> 5.00	O=C(O)Cc1cn(Cc2ccc(-c3ccccc3)cc2)c2ccc(OCc3ccccc3)cc12 [Example 122]
> 5.00	O=C(O)Cc1c(C(=O)c2ccc(-c3ccc(Cl)cc3Cl)cc2)[nH]c2ccccc12 [Example 272]
> 5.00	O=C(O)C(Cc1ccccc1)c1c(-c2ccccc2)n(Cc2csc3ccc(Cl)cc23)c2ccccc12 (stereo not shown) [Example 415]
> 5.00	O=C(O)Cc1cn(Cc2ccc(Oc3cc(Cl)ccc3Cl)cc2)c2ccccc12 [Example 590]
4.30 to 5.00	O=C(Cc1cn(Cc2cccc(OCc3ccccc3)c2)c2ccc(OCc3ccccc3)cc12)N1CCCCC1 [Example 188]
4.30 to 5.00	CC(=O)N(C)c1ccc(-n2cc(CC(=O)O)c3ccccc32)c(C)c1 [Example 160]
> 5.00	Cc1cccc(CN(C)c2ccc(-n3cc(CC(=O)O)c4ccccc43)cc2)c1 [Example 176]
4.30 to 5.00	O=C(O)Cc1c(C(=O)c2cccc(-c3cccc(C(F)(F)F)c3)c2)[nH]c2ccccc12 [Example 225]
> 5.00	O=C(O)Cc1c(Cc2ccc(-c3ccccc3)cc2)n(CC2CC2)c2ccccc12 [Example 278]
> 5.00	COc1ccc(Oc2ccc(Cn3cc(CC(=O)O)c4ccccc43)cc2)cc1 [Example 501]
> 5.00	Cc1ccc2sc(-n3cc(CC(=O)O)c4ccccc43)cc2c1 [Example 146]
4.30 to 5.00	CC(C)CNC(=O)Cc1cn(Cc2cccc(OCc3ccccc3)c2)c2ccc(OCc3ccccc3)cc12 [Example 187]
4.30 to 5.00	CC(C)Oc1ccc2scc(Cn3cc(CC(=O)O)c4cc(Br)ccc43)c2c1 [Example 141]

SMILES	pIC50
CC(C)c1ccc(Cn2cc(C(=O)C(=O)O)c3ccccc32)cc1 [Example 417]	4.30 to 5.00

Same assay, conditions: Table 23, compounds made using Scheme 30; read-out: IC50 Activity

pIC50	SMILES
4.30 to 5.00	O=C(O)Cc1cn(Cc2ccc(Oc3c(C(F)(F)F)cccc3C(F)(F)F)cc2)c2ccccc12 [Example 592]

Same assay, conditions: Table 31, compounds made using Schemes 38-45; read-out: IC50 Activity

pIC50	SMILES
4.30 to 5.00	Nc1nc(-c2ccc3c(CC(=O)O)cn(Cc4csc5ccc(Cl)cc45)c3c2)c2nc[nH]c2n1 [Example 639]

Same assay, conditions: Table 32, compounds made using Schemes 46-49; read-out: IC50 Activity

pIC50	SMILES
4.30 to 5.00	Nc1nnc(-c2ccc3c(CC(=O)O)cn(Cc4csc5ccc(Cl)cc45)c3c2)s1 [Example 660]
4.30 to 5.00	Nc1ncc(-c2ccc3c(CC(=O)O)cn(Cc4csc5ccc(Cl)cc45)c3c2)s1 [Example 656]
4.30 to 5.00	O=C(O)Cc1cn(Cc2csc3ccc(Cl)cc23)c2cc(-c3c[nH]c(=O)[nH]c3=O)ccc12 [Example 662]

Same assay, conditions: Table 33, compounds made using Scheme 50; read-out: IC50 Activity

pIC50	SMILES
4.30 to 5.00	O=C(O)Cc1cn(Cc2csc3ccc(Cl)cc23)c2cc(-c3ccc4nn[nH]c4c3)ccc12 [Example 669]

Same assay, conditions: Table 34, compounds made using Schemes 51-52; read-out: IC50 Activity

pIC50	SMILES
4.30 to 5.00	Nc1cc(N)cc(-c2ccc3c(CC(=O)O)cn(Cc4ccccc4)c3c2)c1 [Example 676]
< 4.30	Nc1cc(-c2ccc3c(CC(=O)NOC4CCCCO4)cn(Cc4csc5ccc(Cl)cc45)c3c2)cc([N+](=O)[O-])c1 (stereo not shown) [Example 690]

Same assay, conditions: Table 36, compounds made using Scheme 54; read-out: IC50 Activity

pIC50	SMILES
> 5.00	Nc1cc(N)cc(-c2ccc3c(CC(=O)O)cn(Cc4c(-c5ccccc5)sc5ccccc45)c3c2)c1 [Example 713]
4.30 to 5.00	O=C(O)Cc1cn(Cc2csc3cccc(Cl)c23)c2cc(Br)ccc12 [Example 783]

Same assay, conditions: Table 37, compounds made using Scheme 55; read-out: IC50 Activity

pIC50	SMILES
4.30 to 5.00	O=C(O)Cc1cn(Cc2csc3ccc(Cl)cc23)c2cc(-c3cccc(CO)c3)ccc12 [Example 760]
< 4.30	O=C(O)Cc1cn(Cc2csc3ccc(Cl)cc23)c2cc(-c3ccc(Cl)cc3)ccc12 [Example 753]
< 4.30	COc1ccccc1-c1ccc2c(CC(=O)O)cn(Cc3csc4ccc(Cl)cc34)c2c1 [Example 747]
< 4.30	N#Cc1ccccc1-c1ccc2c(CC(=O)O)cn(Cc3csc4ccc(Cl)cc34)c2c1 [Example 755]

Same assay, conditions: Table 38, compounds made using Scheme 56, Scheme 57 and Scheme 61; read-out: IC50 Activity

pIC50	SMILES
< 4.30	CCNc1cc(Cl)cc2c(Cn3cc(CC(=O)O)c4ccc(Br)cc43)csc12 [Example 772]
